Consider six cell lines from the supplement of paper PMC10307832.

Common to all, as to experiment: relative viability (nuclei count vs DMSO), 5 days (fraction); higher = more cells survive
Compound in test [1]: OCc1c[nH]c2ccccc12 [Indole-3-carbinol] + CC(=O)Nc1cccc(-n2c(=O)n(C3CC3)c(=O)c3c(Nc4ccc(I)cc4F)n(C)c(=O)c(C)c32)c1 [Trametinib] (partner 0.02 µM)
Put shortly: (§1)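 Dosing by pin tool came one day after lung cancer cell lines were seeded in 1536-well plates, using either one drug or a fixed anchor-drug dose plus five library-drug doses (not always all listed) in √10 steps. After 5 days, nuclei were counted on 4× images. Relative viability is treated-well nuclei count divided by vehicle-well nuclei count, and values are medians of duplicate plates.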

Compound in test [2]: OCc1c[nH]c2ccccc12 [Indole-3-carbinol] + CC1(C)CCC(c2ccc(Cl)cc2)=C(CN2CCN(c3ccc(C(=O)NS(=O)(=O)c4ccc(N[C@H](CCN5CCOCC5)CSc5ccccc5)c(S(=O)(=O)C(F)(F)F)c4)cc3)CC2)C1 [Navitoclax] (partner 0.5 µM)
Put shortly:
as §1

Compound in test [3]: OCc1c[nH]c2ccccc12 [Indole-3-carbinol] + COc1cc2c(Oc3ccc(NC(=O)C4(C(=O)Nc5ccc(F)cc5)CC4)cc3F)ccnc2cc1OCCCN1CCOCC1 [Foretinib] (partner 0.25 µM)
A digest of the protocol:
as §1

Compound in test [4]: OCc1c[nH]c2ccccc12 [Indole-3-carbinol] + CS(=O)(=O)CCNCc1ccc(-c2ccc3ncnc(Nc4ccc(OCc5cccc(F)c5)c(Cl)c4)c3c2)o1 [Lapatinib] (partner 2 µM)
A digest of the protocol:
as §1

Compound in test [5]: OCc1c[nH]c2ccccc12 [Indole-3-carbinol] + Cc1nc(Nc2ncc(C(=O)Nc3c(C)cccc3Cl)s2)cc(N2CCN(CCO)CC2)n1 [Dasatinib] (partner 0.075 µM)
Put shortly: as §1

For PC-14, the relative viability is 0.7 in test [1] (first compound 0.253 µM); 0.729 in test [1] (first compound 0.8 µM); 0.818 in test [1] (first compound 2.53 µM); 0.711 in test [1] (first compound 8 µM); 1.01 in test [2] (first compound 0.253 µM); 1.1 in test [2] (first compound 0.8 µM). The relative viability in test [2] (first compound 2.53 µM) came out at 1.07; in test [2] (first compound 8 µM), 0.961; in test [3] (first compound 0.253 µM), 0.961; in test [3] (first compound 0.8 µM), 0.842; in test [3] (first compound 2.53 µM), 0.987; in test [3] (first compound 8 µM), 0.913. In addition, the relative viability is 0.288 in test [4] (first compound 0.253 µM); 0.321 in test [4] (first compound 0.8 µM); 0.342 in test [4] (first compound 2.53 µM); 0.266 in test [4] (first compound 8 µM); 0.265 in test [5] (first compound 0.253 µM); 0.287 in test [5] (first compound 0.8 µM). Moreover, the values for the relative viability in test [5] (first compound 2.53 µM) and in test [5] (first compound 8 µM) were 0.27 and 0.26, respectively.

In the case of RERF-LC-KJ, the relative viability in test [1] (first compound 0.253 µM) came out at 0.812; in test [1] (first compound 0.8 µM), 0.904; in test [1] (first compound 2.53 µM), 0.943; in test [1] (first compound 8 µM) it was 0.825; in test [2] (first compound 0.253 µM), 1.12; in test [2] (first compound 0.8 µM) it was 0.907. The relative viability in test [2] (first compound 2.53 µM) worked out at 0.971; in test [2] (first compound 8 µM), 1.04; in test [3] (first compound 0.253 µM) it was 0.873; in test [3] (first compound 0.8 µM), 0.932; in test [3] (first compound 2.53 µM), 0.815; in test [3] (first compound 8 µM), 0.819. In addition, the relative viability in test [4] (first compound 0.253 µM) was determined as 0.866; in test [4] (first compound 0.8 µM), 0.891; in test [4] (first compound 2.53 µM), 0.802; in test [4] (first compound 8 µM), 0.787; in test [5] (first compound 0.253 µM), 0.815; in test [5] (first compound 0.8 µM), 0.842. Besides, the relative viability came out at 0.846 in test [5] (first compound 2.53 µM) and 0.762 in test [5] (first compound 8 µM).

Turning to SK-LU-1, the relative viability in test [1] (first compound 0.253 µM) came out at 0.637; in test [1] (first compound 0.8 µM), 0.453; in test [1] (first compound 2.53 µM), 0.469; in test [1] (first compound 8 µM), 0.582; in test [2] (first compound 0.253 µM), 0.899; in test [2] (first compound 0.8 µM), 0.783. The relative viability in test [2] (first compound 2.53 µM) was 0.795; in test [2] (first compound 8 µM), 0.653; in test [3] (first compound 0.253 µM), 0.851; in test [3] (first compound 0.8 µM) it was 0.836; in test [3] (first compound 2.53 µM), 0.911; in test [3] (first compound 8 µM) it was 0.763. Besides, the relative viability in test [4] (first compound 0.253 µM) was 0.941; in test [4] (first compound 0.8 µM), 0.903; in test [4] (first compound 2.53 µM) it was 1.06; in test [4] (first compound 8 µM), 0.829; in test [5] (first compound 0.253 µM), 0.194; in test [5] (first compound 0.8 µM) it was 0.211. For the same cell line, the relative viability in test [5] (first compound 2.53 µM) was 0.178; in test [5] (first compound 8 µM) it was 0.208.

As to SK-MES-1, the relative viability amounted to 0.539 in test [1] (first compound 0.253 µM); 0.627 in test [1] (first compound 0.8 µM); 0.56 in test [1] (first compound 2.53 µM); 0.54 in test [1] (first compound 8 µM); 1.28 in test [2] (first compound 0.253 µM); 1.3 in test [2] (first compound 0.8 µM). For the same cell line, the relative viability came out at 1.18 in test [2] (first compound 2.53 µM); 1.18 in test [2] (first compound 8 µM); 1.03 in test [3] (first compound 0.253 µM); 0.922 in test [3] (first compound 0.8 µM); 0.946 in test [3] (first compound 2.53 µM); 0.882 in test [3] (first compound 8 µM). The relative viability is 0.455 in test [4] (first compound 0.253 µM); 0.501 in test [4] (first compound 0.8 µM); 0.452 in test [4] (first compound 2.53 µM); 0.421 in test [4] (first compound 8 µM); 0.472 in test [5] (first compound 0.253 µM); 0.343 in test [5] (first compound 0.8 µM). Also, the figures for the relative viability in test [5] (first compound 2.53 µM) and in test [5] (first compound 8 µM) were 0.387 and 0.417, respectively.

As for SW 1573, the relative viability in test [1] (first compound 0.253 µM) turned out to be 0.512; in test [1] (first compound 0.8 µM), 0.605; in test [1] (first compound 2.53 µM), 0.534; in test [1] (first compound 8 µM), 0.564; in test [2] (first compound 0.253 µM), 1.1; in test [2] (first compound 0.8 µM), 1.13. The relative viability in test [2] (first compound 2.53 µM) stood at 1.03; in test [2] (first compound 8 µM), 0.901; in test [3] (first compound 0.253 µM), 1.12; in test [3] (first compound 0.8 µM), 1.04; in test [3] (first compound 2.53 µM), 1.02; in test [3] (first compound 8 µM) it was 0.812. The relative viability in test [4] (first compound 0.253 µM) is 1.2; in test [4] (first compound 0.8 µM), 1.05; in test [4] (first compound 2.53 µM), 1.16; in test [4] (first compound 8 µM), 1.08; in test [5] (first compound 0.253 µM), 0.553; in test [5] (first compound 0.8 µM), 0.653. Also, the relative viability came out at 0.666 in test [5] (first compound 2.53 µM) and 0.407 in test [5] (first compound 8 µM).

Regarding UMC-11, the relative viability in test [1] (first compound 0.253 µM) was determined as 0.713; in test [1] (first compound 0.8 µM) it was 0.727; in test [1] (first compound 2.53 µM), 0.675; in test [1] (first compound 8 µM), 0.683; in test [2] (first compound 0.253 µM), 0.259; in test [2] (first compound 0.8 µM), 0.308. Further, the relative viability worked out at 0.329 in test [2] (first compound 2.53 µM); 0.325 in test [2] (first compound 8 µM); 0.914 in test [3] (first compound 0.253 µM); 1.1 in test [3] (first compound 0.8 µM); 1.05 in test [3] (first compound 2.53 µM); 1.09 in test [3] (first compound 8 µM). For the same cell line, the relative viability in test [4] (first compound 0.253 µM) stood at 1.03; in test [4] (first compound 0.8 µM), 0.953; in test [4] (first compound 2.53 µM), 0.91; in test [4] (first compound 8 µM) it was 0.951; in test [5] (first compound 0.253 µM) it was 0.482; in test [5] (first compound 0.8 µM), 0.451. In addition, the relative viability is 0.514 in test [5] (first compound 2.53 µM) and 0.45 in test [5] (first compound 8 µM).
